The values below come from patent US11939379B2 (The Regents of the University of California, priority 2017, dated 2024).

For series [1], the system named is scAZ1-VPR and dCas9-BCL-xL in reporter HEK293T cell line containing the Gal4-UAS-Fluc operon. Kind of series: CRISPRa-mediated luciferase assay (scAZ1 AbCID gene circuit). Type of series: cell-based. As to the method:
For CRISPRa-mediated transcriptional activation, the reporter HEK293T cell line containing the Gal4-UAS-Fluc operon (Collaboration, O. R, Nat. Methods, 13:191-192 (2016)) was seeded at ˜0.5×10^6 cells/well in 6-well plates and cultured under 5% CO2 at 37° C. overnight. The cells were transfected with a plasmid encoding scAZ1-VPR and another plasmid encoding dCas9-BCL-xL and Gal4 sgRNA at a 1:1 ratio. The transfected cells were trypsinized and resuspended in fresh DMEM supplemented with 10% FBS 24 h after transfection. Cells were then aliquoted into a 96-well poly-D-lysine coated plate (Corning) and allowed to adhere for 24 h before 20 nM ABT-737 was added to induce CRISPRa activity. Cells were then further incubated for 48 h before evaluation of luciferase gene expression. To determine luciferase activity, cells were lysed with Bright-Glo Luciferase Assay substrate (Promega) and analyzed using an Infinite M200 PRO plate reader (Tecan). The luciferase activities were background-subtracted with a negative control (cells expressing full-length dCas9-VPR and PHOX2B negative-sgRNA), and normalized against a positive control (cells expressing full-length dCas9-VPR and Gal4 sgRNA). For investigation of cellular dose response, different concentrations of ABT-737 (0.014 nM, 0.041 nM, 0.12 nM, 0.37 nM, 1.1 nM, 3.3 nM, 10 nM, 30 nM, 90 nM, 270 nM) were added to the cells after cells were transfected and aliquoted to a 96-well plate.

The subject of series [2] is AbCID CAR (BCL-xL) Jurkat NFAT reporter cells co-cultured with K562 target cells. The experiment in a line: Quantification of CAR T-cell activation (NFAT-GFP, CD69, IL-2). Type of series: cell-based. Particulars: for NFAT-dependent GFP reporter expression / IL-2 secretion / CD69 expression: antibody 5 nM, 20 hours. The procedure: Jurkat cells expressing CARs were mixed with antigen positive (CD19^+) or antigen negative (CD19^−) K562 target cells at a ratio of 1:2. […] After overnight incubation at 37° C., cells were pelleted by centrifugation. NFAT-dependent GFP reporter expression was quantified by flow cytometry using a FACSCanto II (BD Biosciences). CD69 expression was quantified by immunofluorescence flow cytometry using a FACSCanto II (BD Biosciences) using an APC anti-human CD69 Antibody (Biolegend 310910). IL-2 secretion was quantified by collection of supernatants and analysis by ELISA using the BD Human IL-2 ELISA set as per manufacturer's protocol. All flow cytometry data analysis was performed using FlowJo software and all plots were generated using Prism software (GraphPad).

The next series concerns HEK293T cells. The experiment in a line: Cellular toxicity of ABT-737, CellTiter-Glo. Type of series: cell-based. Particulars: 24 h, viability relative to DMSO, read-out: IC50 (cell death). As to the method:
(§1) W T Jurkat, AbCID CAR Jurkat, Conventional CAR Jurkat, WT K562, CD19^+ K562, and HEK293T cells were plated in 96-well plates at ˜5000 cells per well. Each cell line was incubated with varying concentrations of ABT-737 (10 μM initial, 3-fold serial-dilutions, 8 times) or DMSO alone (0.1%). After 24 h, cell viability was measured using a CellTiter-Glo® Luminescent Cell Viability Assay (Promega) and the manufacturer's standard protocol. The percent viability relative to DMSO treatment was plotted and analyzed for each cell line using Prism software (GraphPad).

Another series deals with Jurkat cells. Kind of series: Cellular toxicity of ABT-737, CellTiter-Glo. Type of series: cell-based. Particulars: 24 h, viability relative to DMSO, read-out: IC50 (cell death). As to the method: as §1
The test system of a further series is K562 cells. Kind of series: Cellular toxicity of ABT-737, CellTiter-Glo. It counts as cell-based. To be noted: K562, 24 h, viability relative to DMSO; read-out: IC50 (cell death). As to the method: as §1
Another series has as its system platelets. Particulars: Zhang et al. 2007; cited from earlier work.
A further series has as its system mice. To be noted: mouse, in vivo; cited from earlier work.
The next series has as its target T1, BCL-xL/ABT-263 complex (Homo sapiens, UniProt Q07817).
T1 construct: C-terminally truncated BCL-xL (residues 2-215) with an N-terminal AviTag; made in house; host or cells: E. coli BL21(DE3), pMCSG7 vector
The experiment in a line: Biolayer interferometry, Fab binding to BCL-xL in the presence of ABT-263. Particulars: ABT-263 in place of ABT-737. As to the method:
Biolayer interferometery data were measured using an Octet RED384 instrument (ForteBio). Biotinylated BCL-xL was immobilized on a Streptavidin (SA) biosensor using a 200 nM solution. Serial dilutions of Fabs in kinetics buffer (PBS, pH 7.4, 0.05% Tween-20, 0.2% BSA, 10 μM biotin) with small molecule (1 μM), peptide (5 μM), or vehicle (0.05% DMSO) were used as analyte. Affinity (KD) and kinetic parameters (kon and koff) were calculated from a global fit (1:1) of the data using the Octet RED384 software.

Series [3] relates to T cells co-cultured with CD19+ K562 cells. The experiment in a line: AbCID-regulated inducible bispecific T cell engager, T cell activation. To be noted: for T-cell activation, CD69 expression / T-cell activation, NFAT signaling (GFP expression): antibody conjugated to anti-CD19, Bcl-2 conjugated to anti-CD3, addition of ABT-199. Type of series: cell-based. From the text:
A representative embodiment of an AbCID-regulated inducible bispecific T cell engager is shown in FIG. 19A, having a first AbCID component conjugated to an anti-CD3 antibody and a second AbCID component conjugated to an antibody that recognizes a tumor specific antigen. Administration of the small molecule dimerizer allows for generation of the CID complex, resulting in recruitment of T cells to cancer cells expressing the tumor specific antigen.

Residue numbers refer to the chain shown, from its start. Entries after “also recorded” stand apart in the source; their conditions may differ. Some results are limits rather than exact numbers.

T1 sequence (Q07817 2-215, one chain of several): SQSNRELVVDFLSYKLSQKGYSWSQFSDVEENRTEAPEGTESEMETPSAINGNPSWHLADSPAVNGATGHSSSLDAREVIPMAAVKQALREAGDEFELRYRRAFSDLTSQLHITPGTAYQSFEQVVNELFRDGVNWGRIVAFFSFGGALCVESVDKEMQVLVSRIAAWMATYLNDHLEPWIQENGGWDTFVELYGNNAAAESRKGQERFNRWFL

Consider `CN(C)CC[C@H](CSc1ccccc1)Nc1ccc(S(=O)(=O)NC(=O)c2ccc(N3CCN(Cc4ccccc4-c4ccc(Cl)cc4)CC3)cc2)cc1[N+](=O)[O-]` [ABT-737], for which, in series [1], the “concentration range used to induce CRISPRa activity” value was < 270 nM. In addition, the EC50 in [1] (48-hour induction, AbCID-gated system, read-out: EC50 of induction of luciferase expression) stood at 8.9 ± 1 nM. Also, the luciferase expression result in [1] (ABT-737 20 nM, 48 hours, Gal4 sgRNA) was “robust expression of luciferase”. In series [1] (AbCID-gated system with a negative sgRNA), the “luciferase expression with a negative sgRNA” value is “no increase in luciferase expression”. Besides, the “concentration range used to induce AbCID CAR activity” value in [2] is on record as < 100 nM. Also, the “T-cell activation by ABT-737 on its own” value in [2] (ABT-737 alone) is listed as “not able to induce T-cell activation on its own”. The “NFAT-dependent GFP reporter expression” value in series [2] (CD19+ K562 target cells) is listed as “dose-dependent activation of the NFAT pathway”; in series [2] (CD19− K562 target cells), “not observed; also recorded: no activation was observed”. For the same molecule, the IL-2 secretion entry in [2] (CD19+ K562 target cells, ELISA) is “dose-dependent secretion of IL-2”; in series [2] (CD19− K562 target cells), “no secretion was observed”. In addition, the CD69 expression entry in [2] (CD19+ K562 target cells, immunofluorescence flow cytometry) is on record as “dose-dependent expression of CD69”; in [2] (CD19− K562 target cells), “no expression was observed”. For the same molecule, the values for the IC50 in the series with HEK293T cells, with Jurkat cells and in the series with K562 cells were ~10000 nM, ~2000 nM and > 10000 nM, respectively. The “concentration observed to be toxic to platelets” value in the series on platelets is “low μM”. The tolerability in mice entry with mice was “generally well tolerated by mice, except for platelet toxicity”.

Regarding `CC1(C)CCC(c2ccc(Cl)cc2)=C(CN2CCN(c3ccc(C(=O)NS(=O)(=O)c4ccc(N[C@H](CCN5CCOCC5)CSc5ccccc5)c(S(=O)(=O)C(F)(F)F)c4)cc3)CC2)C1` [ABT-263], the “formation of a dimer” value on BCL-xL/ABT-263 complex was “does not result in the formation of a dimer”.

B1: AZ34: Fab clone selected against Bcl-2 + ABT-199 complex (antibody)
heavy: EISEVQLVESGGGLVQPGGSLRLSCAASGFNIYYSSMHWVRQAPGKGLEWVASISSYSGSTSYADSVKGRFTISADTSKNTAYLQMNSLRAEDTAVYYCARGGWFWGSGGYSSAFDYWGQGTLVTVSSASTKGPSVFPLAPSSKSTSGGTAALGCLVKDYFPEPVTVSWNSGALTSGVHTFPAVLQSSGLYSLSSVVTVPSSSLGTQTYICNVNHKPSNTKVDKKVEPKSCDKTHTGGSHHHHHH
light: SDIQMTQSPSSLSASVGDRVTITCRASQSVSSAVAWYQQKPGKAPKLLIYSASSLYSGVPSRFSGSRSGTDFTLTISSLQPEDFATYYCQQHHSLITFGQGTKVEIKRTVAAPSVFIFPPSDSQLKSGTASVVCLLNNFYPREAKVQWKVDNALQSGNSQESVTEQDSKDSTYSLSSTLTLSKADYEKHKVYACEVTHQGLSSPVTKSFNRGECGGSDYKDDDDK
For B1, in series [3], the “T-cell activation, CD69 expression” value was “increased expression of CD69” and the “T-cell activation, NFAT signaling (GFP expression)” value (“T-cell activation, NFAT signaling” for short) was “activation of NFAT signaling”.

B2: AZ21: Fab clone selected against Bcl-2 + ABT-199 complex (antibody)
heavy: EISEVQLVESGGGLVQPGGSLRLSCAASGFNLSYSSMHWVRQAPGKGLEWVASISPYSSYTYYADSVKGRFTISADTSKNTAYLQMNSLRAEDTAVYYCARGYWSFYGMDYWGQGTLVTVSSASTKGPSVFPLAPSSKSTSGGTAALGCLVKDYFPEPVTVSWNSGALTSGVHTFPAVLQSSGLYSLSSVVTVPSSSLGTQTYICNVNHKPSNTKVDKKVEPKSCDKTHTGGSHHHHHH
light: SDIQMTQSPSSLSASVGDRVTITCRASQSVSSAVAWYQQKPGKAPKLLIYSASSLYSGVPSRFSGSRSGTDFTLTISSLQPEDFATYYCQQYYAHYLFTFGQGTKVEIKRTVAAPSVFIFPPSDSQLKSGTASVVCLLNNFYPREAKVQWKVDNALQSGNSQESVTEQDSKDSTYSLSSTLTLSKADYEKHKVYACEVTHQGLSSPVTKSFNRGECGGSDYKDDDDK
Take B2: in series [3], the “T-cell activation, CD69 expression” value was “increased expression of CD69” and the “T-cell activation, NFAT signaling” value is on record as “activation of NFAT signaling”. Further, the “level of T-cell activation (NFAT activation) versus ABT-199 concentration” value in series [3] (titration of ABT-199) is on record as “tunable by titration of ABT-199 concentration”.

B3: AZ35: Fab clone selected against Bcl-2 + ABT-199 complex (antibody)
heavy: EISEVQLVESGGGLVQPGGSLRLSCAASGFNLYYSSIHWVRQAPGKGLEWVAYISSYSGYTYYADSVKGRFTISADTSKNTAYLQMNSLRAEDTAVYYCARGGWYWASGSYYGAMDYWGQGTLVTVSSASTKGPSVFPLAPSSKSTSGGTAALGCLVKDYFPEPVTVSWNSGALTSGVHTFPAVLQSSGLYSLSSVVTVPSSSLGTQTYICNVNHKPSNTKVDKKVEPKSCDKTHTGGSHHHHHH
light: B2 light with Y93G, A94Y, H95S, Y96V, F98I
For the molecule B3, in series [3], the “T-cell activation, CD69 expression” value was “increased expression of CD69” and the “T-cell activation, NFAT signaling” value is “activation of NFAT signaling”.
